Test results: patent US8765728B2, “[1,5]-diazocin derivatives” (MelliTech, priority 2009, dated 2014)

Tested on: Min6 cell
Assay: Insulin secretion response of beta cell line to formula I compounds (insulin ELISA)
Assay type: cell-based
Conditions: rank according to % increase versus control at most effective dose
Summary of the method: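 After compound or vehicle exposure, Min6 cells were held 2 h in glucose-free medium and preincubated 30 min at 37° C in glucose-free KRBH (pH 7.4, 0.1% BSA). They were then incubated 30 min at 37° C in KRBH with varying glucose. Secreted insulin and acid-ethanol-extracted intracellular insulin were measured by ELISA.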

| Compound | Insulin secretion (Min6 cell) Range 1 to 5 |
| --- | --- |
| OC(CN1CCCN(C2CC2)Cc2cc(F)ccc21)c1ccc(Cl)cc1 (stereo not shown) [Compound 145, 1-(4-chlorophenyl)-2-(5-cyclopropyl-8-fluoro-3,4,5,6-tetrahydrobenzo[b][1,5]diazocin-1(2H)-yl)ethanol] | 3 (3: 120-140% of control) |
| C[C@H](O)CN1CCC(=O)N(C2CC2)Cc2c1ccc1c2OCCO1 [Compound 146, (S)-11-cyclopropyl-7-(2-hydroxypropyl)-2,3,8,9,11,12-hexahydro-[1,4]dioxino[2′,3′:3,4]benzo[1,2-b][1,5]diazocin-10(7H)-one] | 5 (5: >170% of control) |
| C[C@H](O)CN1CCC(=O)N(C2CC2)Cc2cc(Cl)ccc21 [Compound 147, (S)-8-chloro-5-cyclopropyl-1-(2-hydroxypropyl)-2,3,5,6-tetrahydrobenzo[b][1,5]diazocin-4(1H)-one] | 2 (2: 110-120% of control) |
| O=C1CCN(CC(O)c2ccc(OC(F)F)cc2)c2ccc(Cl)cc2CN1C1CC1 (stereo not shown) [Compound 148, 8-chloro-5-cyclopropyl-1-(2-(4-(difluoromethoxy)phenyl)-2-hydroxyethyl)-2,3,5,6-tetrahydrobenzo[b][1,5]diazocin-4(1H)-one] | 1 (1: 90-110% of control) |
| O=C1CCN(CC(O)c2ccc(OC(F)F)cc2)c2ccc3c(c2CN1C1CC1)OCCO3 (stereo not shown) [Compound 149, 11-cyclopropyl-7-(2-(4-(difluoromethoxy)phenyl)-2-hydroxyethyl)-2,3,8,9,11,12-hexahydro-[1,4]dioxino[2′,3′:3,4]benzo[1,2-b][1,5]diazocin-10(7H)-one] | 3 (3: 120-140% of control) |
| O=C1CCN(C(=O)Cc2ccc(F)cc2)c2ncccc2CN1CC1CC1 [Compound 150, 5-(cyclopropylmethyl)-1-(2-(4-fluorophenyl)acetyl)-2,3,5,6-tetrahydropyrido[2,3-b][1,5]diazocin-4(1H)-one] | 4 (4: 140-170% of control) |
| Cc1cc(C(=O)N2CCC(=O)N(CC3CC3)Cc3cccnc32)on1 [Compound 151, 5-(cyclopropylmethyl)-1-(3-methylisoxazole-5-carbonyl)-2,3,5,6-tetrahydropyrido[2,3-b][1,5]diazocin-4(1H)-one] | 1 (1: 90-110% of control) |
| O=C1CCN(C(=O)c2cnccn2)c2ncccc2CN1CC1CC1 [Compound 152, 5-(cyclopropylmethyl)-1-(pyrazine-2-carbonyl)-2,3,5,6-tetrahydropyrido[2,3-b][1,5]diazocin-4(1H)-one] | 3 (3: 120-140% of control) |
| O=C1CCN(C(=O)c2cccnc2)c2ncccc2CN1CC1CC1 [Compound 153, 5-(cyclopropylmethyl)-1-nicotinoyl-2,3,5,6-tetrahydropyrido[2,3-b][1,5]diazocin-4(1H)-one] | 3 (3: 120-140% of control) |
| CC(C)(C)C(O)CN1CCC(=O)N(C2CCCC2)Cc2cc(F)ccc21 (stereo not shown) [Compound 154, 5-cyclopentyl-8-fluoro-1-(2-hydroxy-3,3-dimethylbutyl)-2,3,5,6-tetrahydrobenzo[b][1,5]diazocin-4(1H)-one] | 1 (1: 90-110% of control) |
| COc1ccc2c(c1)CN(CC=C(C)C)C(=O)CCN2C(=O)c1ccno1 [Compound 156, 1-(isoxazole-5-carbonyl)-8-methoxy-5-(3-methylbut-2-enyl)-2,3,5,6-tetrahydrobenzo[b][1,5]diazocin-4(1H)-one] | 1 (1: 90-110% of control) |
| CCC#CCN1Cc2ccccc2N(C(=O)c2ccno2)CCC1=O [Compound 158, 1-(isoxazole-5-carbonyl)-5-(pent-2-ynyl)-2,3,5,6-tetrahydrobenzo[b][1,5]diazocin-4(1H)-one] | 1 (1: 90-110% of control) |
| O=C1CCN(C(=O)c2ccno2)c2cc3c(cc2CN1CC1CC1)OCO3 [Compound 159, 9-(cyclopropylmethyl)-5-(isoxazol-5-ylcarbonyl)-6,7,9,10-tetrahydro[1,3]dioxolo[4,5-i][1,5]benzodiazocin-8(5H)-one] | 1 (1: 90-110% of control) |
| COc1ccc2c(c1)CN(C1CC1)C(=O)CCN2C(=O)C1CCC1 [Compound 160, 1-(cyclobutanecarbonyl)-5-cyclopropyl-8-methoxy-2,3,5,6-tetrahydrobenzo[b][1,5]diazocin-4(1H)-one] | 1 (1: 90-110% of control) |
| O=C1CCNc2cc3c(cc2CN1C1CCCC1)OCO3 [Compound 161, 9-cyclopentyl-6,7,9,10-tetrahydro[1,3]dioxolo[4,5-i][1,5]benzodiazocin-8(5H)-one] | 1 (1: 90-110% of control) |
| CC(C)(C)OCC(O)CN1CCC(=O)N(C2CC2)Cc2cc3c(cc21)OCO3 (stereo not shown) [Compound 162, 5-(3-tert-butoxy-2-hydroxypropyl)-9-cyclopropyl-6,7,9,10-tetrahydro[1,3]dioxolo[4,5-i][1,5]benzodiazocin-8(5H)-one] | 1 (1: 90-110% of control) |
| CCN1Cc2ccccc2N(CC(C)O)CCC1=O (stereo not shown) [Compound 163, 5-ethyl-1-(2-hydroxypropyl)-2,3,5,6-tetrahydrobenzo[b][1,5]diazocin-4(1H)-one] | 1 (1: 90-110% of control) |
| CCN1Cc2cc(F)ccc2N(CC(O)C(C)(C)C)CCC1=O (stereo not shown) [Compound 166, 5-ethyl-8-fluoro-1-(2-hydroxy-3,3-dimethylbutyl)-2,3,5,6-tetrahydrobenzo[b][1,5]diazocin-4(1H)-one] | 1 (1: 90-110% of control) |
| C=CCOc1c(OC)ccc2c1CN(CC)C(=O)CCN2CC(O)COc1ccccc1 (stereo not shown) [Compound 167, 7-(allyloxy)-5-ethyl-1-(2-hydroxy-3-phenoxypropyl)-8-methoxy-2,3,5,6-tetrahydrobenzo[b][1,5]diazocin-4(1H)-one] | 2 (2: 110-120% of control) |
| O=C1CCN(C[C@@H](O)COCc2ccccc2)c2ccc(F)cc2CN1C1CCCC1 [Compound 168, (R)-1-(3-(benzyloxy)-2-hydroxypropyl)-5-cyclopentyl-8-fluoro-2,3,5,6-tetrahydrobenzo[b][1,5]diazocin-4(1H)-one] | 4 (4: 140-170% of control) |
| C=CCOc1c(OC)ccc2c1CN(CC1CC1)C(=O)CCN2C(=O)c1ccno1 [Compound 169, 7-(allyloxy)-5-(cyclopropylmethyl)-1-(isoxazole-5-carbonyl)-8-methoxy-2,3,5,6-tetrahydrobenzo[b][1,5]diazocin-4(1H)-one] | 4 (4: 140-170% of control) |
| ethyl 2-(4-oxo-1,2,3,4-tetrahydrobenzo[b][1,5]diazocin-5(6H)-yl)acetate [Compound 155] | 1 (1: 90-110% of control) |
